Test system: Brassica plants comprising mutant AHAS alleles
Test: Field trial, pre-planting treatment (0, 10, 20, 30 g a.i./ha), two locations in Canada: ERG, EST1, EST2, PPTOX, VIG1, VIG2, VIG3 scores
Format: in vivo, Brassica napus
Details: ratio >1 = positive contribution
Source text: Tests were set up and conducted to asses the growth and performance of plants comprising AHAS full knock-out alleles, and to further analyze the correlation between the presence of full knockout and missense AHAS genes in Brassica plants and plant growth and herbicide tolerance of the Brassica plants in the field. To this end, the Brassica plants identified in Example 1 and 2 were backcrossed two times with an elite parent line, and subsequently selfed twice to obtain homozygous plants (BC2S2). Plants were grown as row plots in a split plot design with three replicates (main plots=herbicide treatments, subplots=genotypes) at two locations in Canada. Treatment pre-planting was carried out on the soil about two days before sowing with a dose of 0 (treatment A), 10 (treatment B), 20 (treatment C) or 30 (treatment D) g a.i./ha of thiencarbazone methyl. Herbicide tolerance was measured by scoring for different parameters. The parameter emergence (ERG) was scored at the cotyledon stage on a scale 1-9, where 1 means late emergence and 9 means early emergence. Establishment was scored 14 days after sowing (EST1) and 21 days after sowing (EST2). Scores were from 1 to 9, where 1 is the worst establishment (least plants that emerged), and 9 is the best establishment (most plants emerged). Phytotoxicity (PPTOX) was determined after establishment. Plants were evaluated on a scale of 1 to 9, where 1=completely yellowing, 5=50% of plant is yellow and 9=no yellowing. The vigor scores (see above) were determined at 1-2 leaf stage (VIG1), 7 days after VIG1 (VIG2) and 14 days after VIG1 (VIG3). The average values (Av) and standard deviations (SD) of the scores for the different parameters are represented in Table 7a-g.
Further, the contribution of the knock-out allele to herbicide tolerance conferred by the missense allele was calculated. First, the scores were corrected for a possible effect of the growth per se, independent of herbicide treatment. To this end, the scores for treatments B, C and D were divided by the scores for treatment A for the same genotype and for the same parameter (corrected herbicide tolerance scores). Next, the effect of the knock-out allele to these corrected herbicide tolerance scores obtained by the missense allele was calculated. Therefore, the corrected herbicide tolerance scores for the missense—knock-out allele combination was divided by the corrected herbicide tolerance scores for the missense allele—wild-type combination. In case the knock-out allele has no effect on herbicide tolerance conferred by the missense allele, this ratio should be 1. In case the knock-out allele positively contributes to the herbicide tolerance conferred by the missense allele, this ratio should be higher than 1. The results for the contribution of the knock-out allele to herbicide tolerance conferred by the missense allele as calculated above are shown in table 8.

[1] = Location A, treatment B 10 g a.i./ha pre-planting
[2] = Location A, treatment C 20 g a.i./ha pre-planting
[3] = Location A, treatment D 30 g a.i./ha pre-planting
[4] = Location B, treatment B 10 g a.i./ha pre-planting
[5] = Location B, treatment C 20 g a.i./ha pre-planting
[6] = Location B, treatment D 30 g a.i./ha pre-planting

COC(=O)c1csc(C)c1S(=O)(=O)NC(=O)n1nc(OC)n(C)c1=O [thiencarbazone-methyl, methyl 4-[(4,5-dihydro-3-methoxy-4-methyl-5-oxo-1H-1,2,4-triazol-1-yl)carbonylsulfamoyl]-5-methylthiophene-3-carboxylate]
relative contribution of HETO112 (AHAS1 KO) to herbicide tolerance conferred by HETO111 (AHAS3 missense): VIG2 [1]: 1.05 | relative contribution of HETO112 (AHAS1 KO) to herbicide tolerance conferred by HETO111 (AHAS3 missense): VIG3 [1]: 1.14 | relative contribution of HETO104 (AHAS3 KO) to herbicide tolerance conferred by HETO108 (AHAS1 missense): ERG [2]: 0.77 | relative contribution of HETO104 (AHAS3 KO) to herbicide tolerance conferred by HETO108 (AHAS1 missense): EST1 [2]: 0.77 | relative contribution of HETO104 (AHAS3 KO) to herbicide tolerance conferred by HETO108 (AHAS1 missense): EST2 [2]: 0.87 | relative contribution of HETO104 (AHAS3 KO) to herbicide tolerance conferred by HETO108 (AHAS1 missense): PPTOX [2]: 1.03 | relative contribution of HETO104 (AHAS3 KO) to herbicide tolerance conferred by HETO108 (AHAS1 missense): VIG1 [2]: 0.88 | relative contribution of HETO104 (AHAS3 KO) to herbicide tolerance conferred by HETO108 (AHAS1 missense): VIG2 [2]: 0.90 | relative contribution of HETO104 (AHAS3 KO) to herbicide tolerance conferred by HETO108 (AHAS1 missense): VIG3 [2]: 0.91 | relative contribution of HETO112 (AHAS1 KO) to herbicide tolerance conferred by HETO111 (AHAS3 missense): ERG [2]: 1.20 | relative contribution of HETO112 (AHAS1 KO) to herbicide tolerance conferred by HETO111 (AHAS3 missense): EST1 [2]: 1.19 | relative contribution of HETO112 (AHAS1 KO) to herbicide tolerance conferred by HETO111 (AHAS3 missense): EST2 [2]: 1.19 | relative contribution of HETO112 (AHAS1 KO) to herbicide tolerance conferred by HETO111 (AHAS3 missense): PPTOX [2]: 1.13 | relative contribution of HETO112 (AHAS1 KO) to herbicide tolerance conferred by HETO111 (AHAS3 missense): VIG1 [2]: 1.11 | relative contribution of HETO112 (AHAS1 KO) to herbicide tolerance conferred by HETO111 (AHAS3 missense): VIG2 [2]: 1.00 | relative contribution of HETO112 (AHAS1 KO) to herbicide tolerance conferred by HETO111 (AHAS3 missense): VIG3 [2]: 1.05 | relative contribution of HETO104 (AHAS3 KO) to herbicide tolerance conferred by HETO108 (AHAS1 missense): ERG [3]: 1.03 | relative contribution of HETO104 (AHAS3 KO) to herbicide tolerance conferred by HETO108 (AHAS1 missense): EST1 [3]: 1.03 | relative contribution of HETO104 (AHAS3 KO) to herbicide tolerance conferred by HETO108 (AHAS1 missense): EST2 [3]: 0.94 | relative contribution of HETO104 (AHAS3 KO) to herbicide tolerance conferred by HETO108 (AHAS1 missense): PPTOX [3]: 0.90 | relative contribution of HETO104 (AHAS3 KO) to herbicide tolerance conferred by HETO108 (AHAS1 missense): VIG1 [3]: 0.94 | relative contribution of HETO104 (AHAS3 KO) to herbicide tolerance conferred by HETO108 (AHAS1 missense): VIG2 [3]: 0.89 | relative contribution of HETO104 (AHAS3 KO) to herbicide tolerance conferred by HETO108 (AHAS1 missense): VIG3 [3]: 0.95 | relative contribution of HETO112 (AHAS1 KO) to herbicide tolerance conferred by HETO111 (AHAS3 missense): ERG [3]: 1.28 | relative contribution of HETO112 (AHAS1 KO) to herbicide tolerance conferred by HETO111 (AHAS3 missense): EST1 [3]: 1.36 | relative contribution of HETO112 (AHAS1 KO) to herbicide tolerance conferred by HETO111 (AHAS3 missense): EST2 [3]: 1.18 | relative contribution of HETO112 (AHAS1 KO) to herbicide tolerance conferred by HETO111 (AHAS3 missense): PPTOX [3]: 1.23 | relative contribution of HETO112 (AHAS1 KO) to herbicide tolerance conferred by HETO111 (AHAS3 missense): VIG1 [3]: 1.18 | relative contribution of HETO112 (AHAS1 KO) to herbicide tolerance conferred by HETO111 (AHAS3 missense): VIG2 [3]: 1.25 | relative contribution of HETO112 (AHAS1 KO) to herbicide tolerance conferred by HETO111 (AHAS3 missense): VIG3 [3]: 1.21 | relative contribution of HETO104 (AHAS3 KO) to herbicide tolerance conferred by HETO108 (AHAS1 missense): ERG [4]: 0.92 | relative contribution of HETO104 (AHAS3 KO) to herbicide tolerance conferred by HETO108 (AHAS1 missense): EST1 [4]: 1.07 | relative contribution of HETO104 (AHAS3 KO) to herbicide tolerance conferred by HETO108 (AHAS1 missense): EST2 [4]: 0.95 | relative contribution of HETO104 (AHAS3 KO) to herbicide tolerance conferred by HETO108 (AHAS1 missense): PPTOX [4]: 0.78 | relative contribution of HETO104 (AHAS3 KO) to herbicide tolerance conferred by HETO108 (AHAS1 missense): VIG1 [4]: 0.95 | relative contribution of HETO104 (AHAS3 KO) to herbicide tolerance conferred by HETO108 (AHAS1 missense): VIG2 [4]: 1.08 | relative contribution of HETO104 (AHAS3 KO) to herbicide tolerance conferred by HETO108 (AHAS1 missense): VIG3 [4]: 1.19 | relative contribution of HETO112 (AHAS1 KO) to herbicide tolerance conferred by HETO111 (AHAS3 missense): ERG [4]: 0.99 | relative contribution of HETO112 (AHAS1 KO) to herbicide tolerance conferred by HETO111 (AHAS3 missense): EST1 [4]: 1.00 | relative contribution of HETO112 (AHAS1 KO) to herbicide tolerance conferred by HETO111 (AHAS3 missense): EST2 [4]: 1.06 | relative contribution of HETO112 (AHAS1 KO) to herbicide tolerance conferred by HETO111 (AHAS3 missense): PPTOX [4]: 0.84 | relative contribution of HETO112 (AHAS1 KO) to herbicide tolerance conferred by HETO111 (AHAS3 missense): VIG1 [4]: 0.89 | relative contribution of HETO112 (AHAS1 KO) to herbicide tolerance conferred by HETO111 (AHAS3 missense): VIG2 [4]: 0.95 | relative contribution of HETO112 (AHAS1 KO) to herbicide tolerance conferred by HETO111 (AHAS3 missense): VIG3 [4]: 1.04 | relative contribution of HETO104 (AHAS3 KO) to herbicide tolerance conferred by HETO108 (AHAS1 missense): ERG [5]: 1.15 | relative contribution of HETO104 (AHAS3 KO) to herbicide tolerance conferred by HETO108 (AHAS1 missense): EST1 [5]: 1.07 | relative contribution of HETO104 (AHAS3 KO) to herbicide tolerance conferred by HETO108 (AHAS1 missense): EST2 [5]: 1.02 | relative contribution of HETO104 (AHAS3 KO) to herbicide tolerance conferred by HETO108 (AHAS1 missense): PPTOX [5]: 1.28 | relative contribution of HETO104 (AHAS3 KO) to herbicide tolerance conferred by HETO108 (AHAS1 missense): VIG1 [5]: 1.22 | relative contribution of HETO104 (AHAS3 KO) to herbicide tolerance conferred by HETO108 (AHAS1 missense): VIG2 [5]: 1.15 | relative contribution of HETO104 (AHAS3 KO) to herbicide tolerance conferred by HETO108 (AHAS1 missense): VIG3 [5]: 1.25 | relative contribution of HETO112 (AHAS1 KO) to herbicide tolerance conferred by HETO111 (AHAS3 missense): ERG [5]: 0.92 | relative contribution of HETO112 (AHAS1 KO) to herbicide tolerance conferred by HETO111 (AHAS3 missense): EST1 [5]: 1.13 | relative contribution of HETO112 (AHAS1 KO) to herbicide tolerance conferred by HETO111 (AHAS3 missense): EST2 [5]: 1.07 | relative contribution of HETO112 (AHAS1 KO) to herbicide tolerance conferred by HETO111 (AHAS3 missense): PPTOX [5]: 0.88 | relative contribution of HETO112 (AHAS1 KO) to herbicide tolerance conferred by HETO111 (AHAS3 missense): VIG1 [5]: 0.93 | relative contribution of HETO112 (AHAS1 KO) to herbicide tolerance conferred by HETO111 (AHAS3 missense): VIG2 [5]: 0.94 | relative contribution of HETO112 (AHAS1 KO) to herbicide tolerance conferred by HETO111 (AHAS3 missense): VIG3 [5]: 0.98 | relative contribution of HETO104 (AHAS3 KO) to herbicide tolerance conferred by HETO108 (AHAS1 missense): ERG [6]: 0.93 | relative contribution of HETO104 (AHAS3 KO) to herbicide tolerance conferred by HETO108 (AHAS1 missense): EST1 [6]: 1.00
